Assays:
[1] = test system: E. coli (J-53); details: ref [4],[7]; cited from earlier work
[2] = test system: Gram+ bacteria; details: ref [4],[7]; cited from earlier work
[3] = test system: VRE; assay: MIC determination in 96-well plates; assay type: cell-based, E. faecium; details: Enterococcus, read-out: MIC VRE

MIC [3] [µg/mL] | Structure (SMILES) | activity against the Gram- bacterium E. coli [1] | MIC values against various organisms [2] [µg/mL]
 | CCc1cc(Nc2cc(=O)n(CCCCO)c(=O)[nH]2)ccc1C [Compound 1, HB-EMAU] | inactive | 2.5 to 5
> 80 | CCc1cc(Nc2nc(O)c3ncn(CCCCO)c3n2)ccc1C [Compound 2b] |  | 
> 80 | CCc1cc(Nc2cc3c(ncn3CCCCOC)c(=O)[nH]2)ccc1C [Compound 19b] |  | 
> 80 | CCc1cc(Nc2cc3c(ncn3CCCCN3CCOCC3)c(=O)[nH]2)ccc1C [Compound 21b] |  | 

Reference: paper PMC3128661 (Bioorganic & medicinal chemistry letters, 2011)
